From patent US6867192B1, “Compounds useful in the treatment of inflammatory diseases” (priority 1998, dated 2005)

molecular target: T1, integrin α4β7, expressed on the RPMI 8866 (human B lymphoid cell line) cell membrane with MAdCAM-1 (Homo sapiens, UniProt P13612+P26010); assay: RPMI 8866/MAdCAM-1 adhesion assay; type: cell-based; conditions: RPMI 8866 cell adhesion to MAdCAM-1, 1 mM MnCl2; mean of n experiments
T1 construct: integrin α4β7, expressed on the RPMI 8866 (human B lymphoid cell line) cell membrane; endogenous in cells; host or cells: RPMI 8866 cells (integrin). zzMAdCAM-1 was made in house in baculovirus-infected Spodoptera frugiperda cells
T1 sequence (P13612 34-1032): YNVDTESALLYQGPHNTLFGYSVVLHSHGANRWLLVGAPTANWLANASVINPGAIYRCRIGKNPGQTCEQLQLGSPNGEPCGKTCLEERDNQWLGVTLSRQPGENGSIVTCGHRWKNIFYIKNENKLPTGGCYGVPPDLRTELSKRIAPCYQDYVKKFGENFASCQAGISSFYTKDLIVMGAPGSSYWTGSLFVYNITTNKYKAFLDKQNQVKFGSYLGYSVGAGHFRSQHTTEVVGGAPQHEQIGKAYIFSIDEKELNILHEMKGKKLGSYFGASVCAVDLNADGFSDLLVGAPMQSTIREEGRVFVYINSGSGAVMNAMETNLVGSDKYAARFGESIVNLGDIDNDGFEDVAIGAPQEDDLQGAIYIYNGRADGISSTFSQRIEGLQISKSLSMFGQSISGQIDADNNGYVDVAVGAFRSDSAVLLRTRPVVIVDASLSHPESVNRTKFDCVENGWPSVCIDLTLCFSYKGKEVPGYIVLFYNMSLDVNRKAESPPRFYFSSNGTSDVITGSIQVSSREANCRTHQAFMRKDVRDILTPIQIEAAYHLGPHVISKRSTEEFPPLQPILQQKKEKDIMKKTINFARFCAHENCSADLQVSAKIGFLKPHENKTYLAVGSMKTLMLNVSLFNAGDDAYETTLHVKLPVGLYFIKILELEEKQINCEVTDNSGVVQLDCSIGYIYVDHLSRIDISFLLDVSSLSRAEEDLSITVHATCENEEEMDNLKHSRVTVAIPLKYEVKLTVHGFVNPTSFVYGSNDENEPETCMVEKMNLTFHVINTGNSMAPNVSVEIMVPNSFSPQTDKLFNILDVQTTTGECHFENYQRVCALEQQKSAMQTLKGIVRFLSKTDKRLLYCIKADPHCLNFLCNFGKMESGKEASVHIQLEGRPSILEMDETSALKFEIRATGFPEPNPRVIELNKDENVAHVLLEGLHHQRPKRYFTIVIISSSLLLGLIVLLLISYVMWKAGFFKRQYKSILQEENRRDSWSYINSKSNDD
T1 sequence (P26010 20-798): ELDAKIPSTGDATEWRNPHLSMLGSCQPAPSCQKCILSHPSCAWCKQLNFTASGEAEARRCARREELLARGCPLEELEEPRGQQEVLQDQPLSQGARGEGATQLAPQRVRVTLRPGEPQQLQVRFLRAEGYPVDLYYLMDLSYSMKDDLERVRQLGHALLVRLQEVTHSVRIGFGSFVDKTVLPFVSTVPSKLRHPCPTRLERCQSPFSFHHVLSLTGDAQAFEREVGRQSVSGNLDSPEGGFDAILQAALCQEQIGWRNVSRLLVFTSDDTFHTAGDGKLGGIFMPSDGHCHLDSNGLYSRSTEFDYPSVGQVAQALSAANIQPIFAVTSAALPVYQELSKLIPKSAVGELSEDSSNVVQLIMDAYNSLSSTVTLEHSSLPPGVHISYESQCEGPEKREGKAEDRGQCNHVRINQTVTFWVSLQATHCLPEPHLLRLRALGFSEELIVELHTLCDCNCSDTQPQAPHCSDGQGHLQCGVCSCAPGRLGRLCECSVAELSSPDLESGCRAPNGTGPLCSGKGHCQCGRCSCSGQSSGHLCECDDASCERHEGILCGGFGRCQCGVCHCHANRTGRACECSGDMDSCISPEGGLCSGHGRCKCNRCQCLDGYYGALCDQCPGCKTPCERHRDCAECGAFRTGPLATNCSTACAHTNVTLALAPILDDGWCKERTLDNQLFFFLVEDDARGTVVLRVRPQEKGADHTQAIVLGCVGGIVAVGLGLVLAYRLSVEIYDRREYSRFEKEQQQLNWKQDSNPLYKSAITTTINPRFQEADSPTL
Experimental: (4) RPMI 8866/MAdCAM-1 Adhesion Assay
This assay was used to investigate the interaction of the integrin α4β7, expressed on the RPMI 8866 (human B lymphoid cell line) cell membrane with MAdCAM-1. Polystyrene 96-well microtitre plates were coated with human immunoglobulin G (IgG; Sigma Chemicals, UK, Product No. 14506) at a concentration of 0.05 mg ml^−1 in bicarbonate buffer (36 mM NaHCO3 and 22 mM Na2CO3, prepared in Dulbecco's phosphate buffered saline at pH 9.8 (PBS); Sigma Chemicals, UK, Product No. 14190-094) for 2 hours at 37° C. This solution was then aspirated and the plates were washed twice with PBS.
MAdCAM-1 was prepared by cloning its constituent domains, under the control of a polyhedrin promoter, into a baculovirus expression system with a zz (Protein A) tag. The amplified baculovirus containing zzMAdCAM-1 was used to infect Spodoptera frugiperda cells growing in suspension in SF900II medium supplemented with 5% foetal calf serum. The cells were infected at a multiplicity of infection of 1 and harvested 48 hours later by centrifugation. Protease inhibitors were added and the culture supernatant was clarified either by filtration through a 0.2 μm filter or by centrifugation. The zzMAdCAM-1 was then purified from this clarified medium using an IgG agarose column, equilibrated with either 20 mM sodium phosphate pH 7.2 alone or in the presence of 0.5M sodium chloride. Elution of zzMAdCAM-1 from the column was mediated using 3M ammonium thiocyanate. The sample was then dialysed thoroughly, using 20 mM sodium phosphate pH 7.2, to remove the ammonium thiocyanate. The purified zzMAdCAM-1 was then concentrated to a small volume (Amicon stirred cell concentrators) until a concentration of 0.5 mg ml^−1 was obtained, calculated using the extinction coefficient value.
This solution of zzMAdCAM-1 was diluted 1:2500 and then incubated overnight at 4° C. in the IgG coated microtitre plates with 3% bovine serum albumin (BSA) in PBS, followed by aspiration and two further washes with PBS. A concentration of the RPMI 8866 cells (3×10^6 cells ml^−1), grown in cell media RPMI 1640 (HyClone Ltd, Product No. B-9106-L) supplemented with 10% heat inactivated foetal calf serum (FCS; Gibco BRL, Product No. 10099-075) and 2 mM L-glutamine, were labelled with 10 μM of the fluorescent dye, 2′, 7′-bis(2-carboxyethyl)-5-(e6)-carboxyfluorescein acetoxymethyl ester (BCECF-AM; Molecular Probes Inc. Product No. B-1150) at 37° C. for 10 minutes. The excess dye was then removed by centrifugation at 500×g for 5 minutes and the cells were resuspended at a concentration of 6×10^6 cells ml^−1 in Hank's balanced salt solution (HBSS; Gibco BRL, Product No. 1419D-094).
Equal volumes of compounds (dissolved in an appropriate solvent and diluted in HBSS containing 1 mM MnCl2) and the labelled RPMI 8866 cells, were added to the MAdCAM-1 coated plates and adhesion was allowed to proceed for 30 minutes at 37° C. Non, or loosely adhered cells, were removed by inversion of the plate and blotted with tissue paper. Two washes with PBS and further blotting were then performed, before the addition of 2% detergent (Triton-X®; Sigma Chemicals UK, Product No. X100). Counting was undertaken in a Wallac Victor™ Fluorimeter, where low fluorescence values were indicative of compounds which had inhibited adhesion. All samples were assayed in singlicate and the following four parameter curve fit, shown by Equation (I) (above) was applied. Wherein the maximum and minimum values are those compared to adhesion in the absence of compound and in the presence of the dipotassium salt of 2 mM EDTA; Sigma Chemicals, UK, Product No. ED2P). Data is presented as the mean pIC50 with the standard error of the mean of n experiments.

| IC50 [nM] | Structure (SMILES) |
| --- | --- |
| 158 | CC(=O)N1CCN(C(=O)Oc2ccc(C[C@H](NC(=O)[C@H](CC(C)C)NC(=O)COc3ccccc3C(C)(C)C)C(=O)O)cc2)CC1 [Example 16, (2S)-3-(4-{[(4-Acetyl-1-piperazinyl)carbonyl]oxy}phenyl)-2-{[(2S)-2-({2-[2-(tert-butyl)phenoxy]acetyl}amino)-4-methylpentanoyl]amino}propanoic acid] |
| 158 | CC(=O)N1CCN(C(=O)Oc2ccc(C[C@H](NC(=O)[C@H](CC(C)C)NC(=O)COc3ccccc3C)C(=O)O)cc2)CC1 [Example 17, (2S)-3-(4-{[(4-Acetyl-1-piperazinyl)carbonyl]oxy}phenyl)-2-[((2S)-4-methyl-2-{[2-(2-methylphenoxy)acetyl]amino}pentanoyl)amino]propanoic acid] |
| 200 | CC(C)C[C@H](NC(=O)COc1ccccc1C(C)(C)C)C(=O)N[C@@H](Cc1ccc(OC(=O)N2CCN(C(=O)c3ccccc3)CC2)cc1)C(=O)O [Example 20, (2S)-3-(4-{[(4-Benzoyl-1-piperazinyl)carbonyl]oxy}phenyl)-2-{[(2S)-2-({2-[2-(tert-butyl)phenoxy]acetyl}amino)-4-methylpentanoyl]amino}propanoic acid] |
| 200 | Cc1ccccc1OCC(=O)N[C@@H](CC(C)C)C(=O)N[C@@H](Cc1ccc(OC(=O)N2CCN(C(=O)c3ccccc3)CC2)cc1)C(=O)O [Example 21, (2S)-3-(4-{[(4-Benzoyl-1-piperazinyl)carbonyl]oxy}phenyl)-2-[((2S)-4-methyl-2-{[2-(2-methylphenoxy)acetyl]amino}pentanoyl)amino]propanoic acid] |
| 63.1 | CC(C)C[C@H](NC(=O)COc1ccccc1I)C(=O)N[C@@H](Cc1ccc(OC(=O)N2CCOCC2)cc1)C(=O)O [Example 23, (2S)-2-[((2S)-2-{[2-(2-Iodophenoxy)acetyl]amino}-4-methylpentanoyl)amino]-3-{4-[(4-morpholinylcarbonyl)oxy]phenyl}propanoic acid] |
| 251 | CC(C)C[C@H](NC(=O)COc1ccccc1C(C)(C)C)C(=O)N[C@@H](Cc1ccc(OC(=O)N2CCOCC2)cc1)C(=O)O [Example 24, (2S)-2-{[(2S)-2-({2-[2-(Tert-butyl)phenoxy]acetyl}amino)-4-methylpentanoyl]amino}-3-{4-[(4-morpholinylcarbonyl)oxy]phenyl}propanoic acid] |
| 31.6 | Cc1ccccc1OCC(=O)N[C@@H](CC(C)C)C(=O)N[C@@H](Cc1ccc(OC(=O)N2CCC(C(N)=O)CC2)cc1)C(=O)O [Example 27, (2S)-3-[4-({[4-(Aminocarbonyl)-1-piperidinyl]carbonyl}oxy)phenyl]-2-[((2S)-4-methyl-2-{[2-(2-methylphenoxy)acetyl]amino}pentanoyl)amino]propanoic acid] |
| 126 | CC(C)C[C@H](NC(=O)c1cccc2c1oc1ccccc12)C(=O)N[C@@H](Cc1ccc(OC(=O)N2CCC(C(N)=O)CC2)cc1)C(=O)O [Example 28, (2S)-3-[4-({[4-(Aminocarbonyl)-1-piperidinyl]carbonyl}oxy)phenyl]-2-({(2S)-2-[(dibenzo[b,d]furan-4-ylcarbonyl)amino]-4-methylpentanoyl}amino)propanoic acid] |
